Test results: PubChem BioAssay AID194 (DTP/NCI, 2004)
Inconclusive results are not listed. How the source made its calls: active means survival T/C of 150% or more; inactive means T/C below 125% in these data. Where a SMILES comes first, the peptide text is derived from it. Bridges are numbered along the chain shown (N, C = ends). Roman numbers before positions name the chains, in order. [ ]: non-standard residue; d: D form. The star is where a group is joined. Quinoxaline2carbonyl = O=C(c1cnc2ccccc2n1)*; NMeV = CN[CH](C(=O)O)C(C)C; NMeC = CN[CH](CS)C(=O)O

System: BDF1 mice, B16 melanoma s.c., survival/tumor T/C
Test: NCI In Vivo Anticancer Drug Screen. Data for tumor model B16 Melanoma (subcutaneous) in B6D2F1 (BDF1) mice
Description: The antitumor activity of compounds was measured in mice bearing transplantable tumors. Survival or tumor size were measured and the results are expressed as the measurement made in the treated group (T) divided by the measurement made in the vehicle treated control group (C). The tumor model used in this assay is B16 Melanoma (subcutaneous) in B6D2F1 (BDF1) mice

[1] = endpoint: median survival time, dose: 6.25 mg/kg/injection, schedule: Q04DX003 (ip), vehicle: saline, higher = longer survival
[2] = endpoint: median survival time, dose: 8.0 mg/kg/injection, schedule: Q01DX009 (ip), vehicle: Klucel (hydroxypropylcellulose) (HPC), higher = longer survival
[3] = endpoint: median survival time, dose: 12.5 mg/kg/injection, schedule: Q04DX003 (ip), vehicle: saline, higher = longer survival
[4] = endpoint: median survival time, dose: 16.0 mg/kg/injection, schedule: Q01DX009 (ip), vehicle: Klucel (hydroxypropylcellulose) (HPC), higher = longer survival
[5] = endpoint: median survival time, dose: 25.0 mg/kg/injection, schedule: Q04DX003 (ip), vehicle: saline, higher = longer survival
[6] = endpoint: median survival time, dose: 50.0 mg/kg/injection, schedule: Q04DX003 (ip), vehicle: saline, higher = longer survival
[7] = endpoint: median survival time, dose: 64.0 mg/kg/injection, schedule: Q01DX009 (ip), vehicle: Klucel (hydroxypropylcellulose) (HPC), higher = longer survival
[8] = endpoint: median survival time, dose: 200.0 mg/kg/injection, schedule: Q04DX003 (ip), vehicle: saline, higher = longer survival
[9] = endpoint: median survival time, dose: 400.0 mg/kg/injection, schedule: Q04DX003 (ip), vehicle: saline, higher = longer survival
[10] = endpoint: median survival time, dose: 16.0 mg/kg/injection, schedule: Q01DX009 (ip), vehicle: water, higher = longer survival
[11] = endpoint: median survival time, dose: 100.0 mg/kg/injection, schedule: Q04DX003 (ip), vehicle: saline, higher = longer survival
[12] = endpoint: median survival time, dose: 800.0 mg/kg/injection, schedule: Q04DX003 (ip), vehicle: saline, higher = longer survival

Measured: T/C

CC(CN1CC(=O)NC(=O)C1)N1CC(=O)NC(=O)C1 (stereo not given)
inactive: [1] 97 % of control | [2] 113 % of control | [3] 97 % of control | endpoint: median survival time, dose: 15.0 mg/kg/injection, schedule: Q01DX009 (ip), vehicle: saline, higher = longer survival 122 % of control | [4] 118 % of control | [5] 102 % of control | endpoint: median survival time, dose: 30.0 mg/kg/injection, schedule: Q01DX009 (ip), vehicle: saline, higher = longer survival 95 % of control | [6] 111 % of control | endpoint: median survival time, dose: 60.0 mg/kg/injection, schedule: Q01DX009 (ip), vehicle: saline, higher = longer survival 110 % of control | [7] 119 % of control | endpoint: median survival time, dose: 120.0 mg/kg/injection, schedule: Q01DX009 (ip), vehicle: saline, higher = longer survival 109 % of control | [8] 105 % of control | [9] 120 % of control

C[C@@H](CN1CC(=O)NC(=O)C1)N1CC(=O)NC(=O)C1
active: [7] 168 % of control
inactive: [1] 91 % of control | [3] 97 % of control | [4] 100 % of control | [10] 117 % of control | [5] 107 % of control | endpoint: median survival time, dose: 32.0 mg/kg/injection, schedule: Q01DX009 (ip), vehicle: Klucel (hydroxypropylcellulose) (HPC), higher = longer survival 110 % of control | [11] 119 % of control | [8] 115 % of control | [9] 108 % of control | [12] 119 % of control

COC1/C=C\C=C(/C)C(=O)NC2=CC(=O)C(=O)C(=C2O)CC(C)CC(OC)C(O)C(C)/C=C(\C)C1OC(N)=O (stereo not given)
inactive: endpoint: median survival time, dose: 0.78 mg/kg/injection, schedule: Q01DX005 (ip), vehicle: other, higher = longer survival 88 % of control | endpoint: median survival time, dose: 3.13 mg/kg/injection, schedule: Q01DX005 (ip), vehicle: other, higher = longer survival 114 % of control | endpoint: median survival time, dose: 6.25 mg/kg/injection, schedule: Q01DX005 (ip), vehicle: other, higher = longer survival 105 % of control

COc1cccc2c1C(=O)c1c(O)c3c(c(O)c1C2=O)C[C@@](O)(/C(C)=N/NC(=O)c1ccccc1)C[C@@H]3OC1CC(N)C(O)C(C)O1 (stereo not given in full)
inactive: endpoint: median survival time, dose: 3.0 mg/kg/injection, schedule: Q01DX009 (ip), vehicle: saline, higher = longer survival 103 % of control | endpoint: median survival time, dose: 4.0 mg/kg/injection, schedule: Q01DX009 (ip), vehicle: saline, higher = longer survival 118 % of control | endpoint: median survival time, dose: 6.0 mg/kg/injection, schedule: Q01DX009 (ip), vehicle: saline, higher = longer survival 121 % of control | endpoint: median survival time, dose: 15.0 mg/kg/injection, schedule: Q04DX003 (ip), vehicle: saline, higher = longer survival 103 % of control | endpoint: median survival time, dose: 30.0 mg/kg/injection, schedule: Q01DX001 (ip), vehicle: saline, higher = longer survival 93 % of control

COC(=O)[C@@]12OC[C@]34[C@H]([C@@H](O)[C@@H]1O)[C@@]1(C)CC(=O)C(O)=C(C)[C@@H]1C[C@H]3OC(=O)[C@H](OC(=O)/C=C(\C)C(C)C)[C@@H]24
inactive: endpoint: median survival time, dose: 0.25 mg/kg/injection, schedule: Q01DX009 (ip), vehicle: saline with Tween-80, higher = longer survival 109 % of control | endpoint: median survival time, dose: 0.5 mg/kg/injection, schedule: Q01DX009 (ip), vehicle: saline with Tween-80, higher = longer survival 96 % of control | endpoint: median survival time, dose: 1.0 mg/kg/injection, schedule: Q01DX009 (ip), vehicle: saline with Tween-80, higher = longer survival 103 % of control | endpoint: median survival time, dose: 1.1 mg/kg/injection, schedule: Q01DX009 (ip), vehicle: saline with Tween-80, higher = longer survival 121 % of control | endpoint: median survival time, dose: 1.3 mg/kg/injection, schedule: Q04DX003 (ip), vehicle: saline with Tween-80, higher = longer survival 116 % of control | endpoint: median survival time, dose: 2.0 mg/kg/injection, schedule: Q01DX001 (ip), vehicle: saline with Tween-80, higher = longer survival 103 % of control | endpoint: median survival time, dose: 2.0 mg/kg/injection, schedule: Q04DX003 (ip), vehicle: saline with Tween-80, higher = longer survival 112 % of control

COC(=O)[C@@H]1c2cc3c(c(O)c2[C@@H](OC2OC(C)C(OC)C(C)(OC)C2OC)C[C@]1(C)O)C(=O)c1c(O)cc2c(c1C3=O)O[C@H]1O[C@]2(C)[C@H](O)[C@@H](N(C)C)[C@@H]1O (stereo not given in full)
inactive: endpoint: median survival time, dose: 0.5 mg/kg/injection, schedule: Q01DX009 (ip), vehicle: other, higher = longer survival 90 % of control | endpoint: median survival time, dose: 125.0 micrograms/kg/injection, schedule: Q01DX009 (ip), vehicle: saline + alcohol, higher = longer survival 118 % of control | endpoint: median survival time, dose: 500.0 micrograms/kg/injection, schedule: Q01DX009 (ip), vehicle: saline + alcohol, higher = longer survival 118 % of control | endpoint: median survival time, dose: 1000.0 micrograms/kg/injection, schedule: Q01DX009 (ip), vehicle: saline + alcohol, higher = longer survival 109 % of control

O=NN(CCF)C(=O)NC1CCSCC1
active: endpoint: median survival time, dose: 31.0 mg/kg/injection, schedule: Q01DX001 (ip), vehicle: saline with Tween-80, higher = longer survival 177 % of control | endpoint: median survival time, dose: 41.0 mg/kg/injection, schedule: Q01DX001 (ip), vehicle: saline with Tween-80, higher = longer survival 186 % of control | endpoint: median survival time, dose: 55.0 mg/kg/injection, schedule: Q01DX001 (ip), vehicle: saline with Tween-80, higher = longer survival 196 % of control

CC1NC(=O)C(NC(=O)c2cnc3ccccc3n2)COC(=O)C(C(C)C)N(C)C(=O)C2CSSCC(C(=O)N(C)C(C(C)C)C(=O)OCC(NC(=O)c3cnc4ccccc4n3)C(=O)NC(C)C(=O)N2C)N(C)C1=O (stereo not given) (I: Quinoxaline2carbonyl-SA[NMeC][NMeV] / II: Quinoxaline2carbonyl-SA[NMeC][NMeV]; ester I:1-II:C, I:C-II:1; disulfide I:3-II:3; configuration not given here)
inactive: endpoint: median survival time, dose: 11.2 micrograms/kg/injection, schedule: Q01DX009 (ip), vehicle: Klucel (hydroxypropylcellulose) (HPC), higher = longer survival 91 % of control | endpoint: median survival time, dose: 22.5 micrograms/kg/injection, schedule: Q01DX009 (ip), vehicle: Klucel (hydroxypropylcellulose) (HPC), higher = longer survival 107 % of control | endpoint: median survival time, dose: 45.0 micrograms/kg/injection, schedule: Q01DX009 (ip), vehicle: Klucel (hydroxypropylcellulose) (HPC), higher = longer survival 109 % of control | endpoint: median survival time, dose: 90.0 micrograms/kg/injection, schedule: Q01DX009 (ip), vehicle: Klucel (hydroxypropylcellulose) (HPC), higher = longer survival 104 % of control

C[C@H](CN1CC(=O)NC(=O)C1)N1CC(=O)NC(=O)C1
inactive: [1] 122 % of control | endpoint: median survival time, dose: 8.0 mg/kg/injection, schedule: Q01DX009 (ip), vehicle: saline, higher = longer survival 109 % of control | [3] 102 % of control | endpoint: median survival time, dose: 16.0 mg/kg/injection, schedule: Q01DX009 (ip), vehicle: saline, higher = longer survival 119 % of control | [10] 96 % of control | [5] 115 % of control | endpoint: median survival time, dose: 32.0 mg/kg/injection, schedule: Q01DX009 (ip), vehicle: saline, higher = longer survival 112 % of control | endpoint: median survival time, dose: 32.0 mg/kg/injection, schedule: Q01DX009 (ip), vehicle: water, higher = longer survival 109 % of control | [6] 111 % of control | [11] 115 % of control | [8] 122 % of control | [12] 115 % of control

O=C(O)CCCc1ccc(N(CCCl)CCCl)cc1
inactive: endpoint: median survival time, dose: 1.5 mg/kg/injection, schedule: Q01DX009 (ip), vehicle: Klucel (hydroxypropylcellulose) (HPC), higher = longer survival 111 % of control | endpoint: median survival time, dose: 3.0 mg/kg/injection, schedule: Q01DX009 (ip), vehicle: Klucel (hydroxypropylcellulose) (HPC), higher = longer survival 105 % of control | endpoint: median survival time, dose: 4.0 mg/kg/injection, schedule: Q01DX009 (ip), vehicle: Klucel (hydroxypropylcellulose) (HPC), higher = longer survival 121 % of control | endpoint: median survival time, dose: 6.0 mg/kg/injection, schedule: Q01DX009 (ip), vehicle: Klucel (hydroxypropylcellulose) (HPC), higher = longer survival 101 % of control | [2] 102 % of control | endpoint: median survival time, dose: 12.0 mg/kg/injection, schedule: Q01DX009 (ip), vehicle: Klucel (hydroxypropylcellulose) (HPC), higher = longer survival 97 % of control
25 % of control: endpoint: median tumor weight (est.), dose: 8.0 mg/kg/injection, schedule: Q01DX009 (ip), vehicle: saline with Tween-80, higher = larger tumour
61 % of control: endpoint: median tumor weight (est.), dose: 4.0 mg/kg/injection, schedule: Q01DX009 (ip), vehicle: saline with Tween-80, higher = larger tumour
